SMILES strings stand for the structures.

The target in this experiment is T1, 12-LO (Homo sapiens, UniProt P18054).
T1 construct: endogenous in cells; host or cells: platelet impurities in human PMNL preparations
T1 sequence (P18054 1-663): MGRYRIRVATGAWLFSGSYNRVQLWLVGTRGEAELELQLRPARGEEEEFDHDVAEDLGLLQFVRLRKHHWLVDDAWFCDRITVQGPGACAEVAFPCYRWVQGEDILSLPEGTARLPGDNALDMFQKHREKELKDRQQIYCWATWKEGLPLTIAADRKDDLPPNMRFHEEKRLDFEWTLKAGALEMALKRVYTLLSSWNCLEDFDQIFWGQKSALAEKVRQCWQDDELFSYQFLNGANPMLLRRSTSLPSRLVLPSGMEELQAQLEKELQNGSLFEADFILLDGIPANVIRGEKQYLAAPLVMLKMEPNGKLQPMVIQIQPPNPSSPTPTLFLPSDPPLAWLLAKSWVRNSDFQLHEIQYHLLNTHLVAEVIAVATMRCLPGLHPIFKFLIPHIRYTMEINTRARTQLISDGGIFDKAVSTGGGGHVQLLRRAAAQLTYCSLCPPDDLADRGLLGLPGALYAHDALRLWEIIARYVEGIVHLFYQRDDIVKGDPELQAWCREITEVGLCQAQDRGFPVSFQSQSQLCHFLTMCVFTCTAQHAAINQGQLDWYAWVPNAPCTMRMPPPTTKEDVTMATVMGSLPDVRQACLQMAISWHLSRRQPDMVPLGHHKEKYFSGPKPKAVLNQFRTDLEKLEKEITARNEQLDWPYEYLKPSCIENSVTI
Kind of experiment: 12-HETE formation in intact PMNL preparations, A23187 + 20 µM AA. It is filed as cell-based. As to conditions: 15 min preincubation, A23187 2.5 µM + 20 µM AA, n.i. = no inhibition observed. As to the method:
Buffy coats from different donors of different blood types were commercially obtained from DRK Blutspendedienst Baden-Württemberg Institute Frankfurt. Donors have given their written consent. […] Following separation, the supernatant was transferred very gently to new 50-ml tubes containing lymphocyte separation medium (LSM) and centrifuged for 10 min at 800 ×g at RT with the centrifuge brake turned off. Afterwards, the supernatant was decanted carefully to discard the platelets and monocytes. The PMNL were washed with 1× PBS before the residual erythrocytes were lysed in two cycles: the cell pellet was resuspended with 10 ml H2O and vortexed for 45 s, and lysis was stopped with 40 ml 1 × PBS. After 10-min centrifugation at 200 ×g at RT, the cycle was repeated once. The supernatant was aspirated, the cell pellet resuspended in 5 ml PBS/glucose and initially separated PMNL preparations with different blood types were finally pooled to gain a sufficient number of cells. […] The enzyme was diluted in PBS/EDTA/ATP, transferred into 5-ml glass tubes, and stored on ice. […] The reaction was stopped by placing the glass tubes on ice. The supernatants were transferred to 1.5 ml reaction tubes and stored at −80°C before LC-MS (liquid chromatography and mass spectrometry) analysis of LTB4 and HETEs as described in 2.6 at the Institute of Pharmacology, Goethe University, University Hospital, Germany. The lipid mediators LTB4, hydroxyeicosatetraenoic acids, 5(S)-HETE, 12(S)-HETE, 15(S)-HETE and 20-HETE were analyzed using liquid chromatography tandem-mass spectroscopy (LC-MS/MS). The LC-MS/MS system consisted of a 5500 QTrap mass spectrometer (Sciex, Darmstadt, Germany), operating in negative ESI mode, an Agilent 1200 HPLC system (Agilent, Waldbronn, Germany) and an HTC Pal autosampler (Chromtech, Idstein, Germany). Sample extraction of LTB4 and HETEs were performed using liquid-liquid extraction: 200 µl of the sample were gently mixed with 20 µl of methanol and 20 µl of internal standard solution and extracted twice with 600 µl ethyl acetate. […] Working solutions of all analytes were prepared in methanol containing 0.1% BHT. The calibration standards were prepared by further dilution of the working standards. […] The residues were reconstituted in 50 µl of methanol:water:BHT (50:50:10^−4, v/v/v) prior to injection into the LC-MS/MS system. Chromatographic separation was achieved using a Gemini NX C18 column (150 mm × 2 mm ID, 5 µm, Phenomenex, Aschaffenburg, Germany) with a precolumn of the same material. A linear gradient was employed at a flow rate of 0.5 ml/min and a total run time of 17.5 min. Mobile phases were A water:ammonia (100:0.05, v/v) and B acetonitrile:ammonia (100:0.05, v/v). […] All data were acquired using Analyst software v1.6.2 and quantitation was performed by MultiQuant software v3.0 (both Sciex, Darmstadt, Germany) using the internal standard method (isotope-dilution mass spectrometry). Calibration curves were calculated by linear regression with 1/x.
As for `CCC=C(CCCCCCCC(=O)O)[N+](=O)[O-]` [12.9.9, 9-nitro-dodec-9-enoic acid], the “PMNL (20 µM AA) 12-HETE IC50” value is “n.i”.
In the case of `CCCCC=C(CCCCCCCC(=O)O)[N+](=O)[O-]` [14.9.9, 9-nitro-tetradec-9-enoic acid] it was “n.i”; in that of `CCCCCCC=C(CCCCCCCC(=O)O)[N+](=O)[O-]` [16.9.9, 9-nitro-hexadec-9-enoic acid], “n.i”; in that of `CCCCCCCCCCCCCC=C(CCC(=O)O)[N+](=O)[O-]` [18.4.4, 4-nitro-octadec-4-enoic acid], “n.i”.
Then `CCCCCCCCCCCCC=C(CCCC(=O)O)[N+](=O)[O-]` [18.5.5, 5-nitro-octadec-5-enoic acid], with “n.i”; and `CCCCCCCCCCCC=C(CCCCC(=O)O)[N+](=O)[O-]` [18.6.6, 6-nitro-octadec-6-enoic acid], with “n.i”.
Then `CCCCCCCCCCCC(=CCCCCC(=O)O)[N+](=O)[O-]` [18.6.7, 7-nitro-octadec-6-enoic acid], with “n.i”; and `CCCCCCCCCCC=C(CCCCCC(=O)O)[N+](=O)[O-]` [18.7.7, 7-nitro-octadec-7-enoic acid], with “n.i”; and `CCCCCCCCCC=C(CCCCCCC(=O)O)[N+](=O)[O-]` [18.8.8, 8-nitro-octadec-8-enoic acid], with “n.i”.
As for `CCCCCCCCCC(=CCCCCCCC(=O)O)[N+](=O)[O-]` [18.8.9, 9-nitro-octadec-8-enoic acid], the “PMNL (20 µM AA) 12-HETE IC50” value was “n.i”.
As for `CCCCCCCCC=C(CCCCCCCC(=O)O)[N+](=O)[O-]` [18.9.9, 9-nitro-octadec-9-enoic acid], the “PMNL (20 µM AA) 12-HETE IC50” value is on record as “n.i”.
In the case of `CCCCCCCCC(=CCCCCCCCC(=O)O)[N+](=O)[O-]` [18.9.10, 10-nitro-octadec-9-enoic acid] it was “n.i”; in that of `CCCCCCCC=C(CCCCCCCCC(=O)O)[N+](=O)[O-]` [18.10.10, 10-nitro-octadec-10-enoic acid], “n.i”; in that of `CCCCCCC=C(CCCCCCCCCC(=O)O)[N+](=O)[O-]` [18.11.11, 11-nitro-octadec-11-enoic acid], “n.i”.
For the compound `CCCCCCCCCCC=C(CCCCCCCC(=O)O)[N+](=O)[O-]` [20.9.9, 9-nitro-eicos-9-enoic acid], the “PMNL (20 µM AA) 12-HETE IC50” value is “n.i”.
In the case of `CCCCCCCC/C=C\CCCCCCCC(=O)O` [OA, oleic acid, reference compound] it was “not affected and n.i”.

The values are drawn from article PMC8637440, “Structural Modifications Yield Novel Insights Into the Intriguing Pharmacodynamic Potential of Anti-inflammatory Nitro-Fatty Acids” (Frontiers in Pharmacology, 2021).
